Laboratory results reported in ChEMBL document CHEMBL1201862, “PubChem BioAssay data set” (2004).
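Cells were grown in 96-well plates and exposed to each compound for 48 hours at five concentrations; endpoints were interpolated linearly between bracketing concentrations, or set to the highest concentration if not reached. GI50 = concentration required for 50% inhibition of growth.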 Active and inactive are the calls of the source. No stated cut-off is given here; in the data, active = GI50 up to about 1.1 µM and inactive = higher.

Experiments:
Assay in all cases: growth of human tumour cells (NCI), 48 h
ACHN = system: ACHN
NCI-H226 = system: NCI-H226
HOP-92 = system: HOP-92
M14 = system: M14
HOP-62 = system: HOP-62
SR = system: SR
EKVX = system: EKVX
SW-620 = system: SW-620
OVCAR-5 = system: OVCAR-5
SNB-75 = system: SNB-75
RXF 393 = system: RXF 393
IGROV-1 = system: IGROV-1
RPMI-8226 = system: RPMI-8226
HCC 2998 = system: HCC 2998
786-0 = system: 786-0
NCI-H23 = system: NCI-H23
SK-MEL-2 = system: SK-MEL-2
OVCAR-4 = system: OVCAR-4

Measured: GI50

C/C(=N\NC(N)=S)c1ccc2c(c1)OCO2
inactive: ACHN > 100 µM | NCI-H226 > 100 µM | HOP-92 > 100 µM | M14 > 100 µM | HOP-62 > 100 µM | SR > 100 µM | EKVX 13.9 µM | SW-620 > 100 µM | OVCAR-5 > 100 µM | SNB-75 > 100 µM | RXF 393 > 100 µM | IGROV-1 > 100 µM | RPMI-8226 > 100 µM | HCC 2998 > 100 µM | 786-0 > 100 µM | NCI-H23 > 100 µM | SK-MEL-2 > 100 µM

O=C(c1c(O)cc(O)cc1O)C1Cc2ccccc21 (centres undefined)
inactive: ACHN > 100 µM | OVCAR-4 30.4 µM | NCI-H226 > 100 µM | HOP-92 19.1 µM | M14 > 100 µM | HOP-62 45.2 µM | SR > 100 µM | SW-620 > 100 µM | OVCAR-5 > 100 µM | SNB-75 13.4 µM | RXF 393 76 µM | IGROV-1 > 100 µM | RPMI-8226 58.1 µM | HCC 2998 > 100 µM | 786-0 31.8 µM | SK-MEL-2 > 100 µM

CC(=O)N1CCC2(c3ccccc3N(C(C)=O)C2c2ccc(O)cc2)C1C(=O)O (centres undefined)
inactive: ACHN > 100 µM | NCI-H226 > 100 µM | HOP-92 > 100 µM | M14 > 100 µM | HOP-62 > 100 µM | SR > 100 µM | EKVX > 100 µM | SW-620 > 100 µM | OVCAR-5 > 100 µM | SNB-75 > 100 µM | RXF 393 > 100 µM | RPMI-8226 > 100 µM | HCC 2998 > 100 µM | 786-0 > 100 µM | NCI-H23 > 100 µM | SK-MEL-2 > 100 µM

Fc1ccccc1C1SCc2nc3ccccc3n21 (centres undefined)
inactive: ACHN 38.1 µM | NCI-H226 76.7 µM | HOP-92 19.7 µM | SR 38.1 µM | EKVX 37.5 µM | SW-620 > 100 µM | OVCAR-5 41.5 µM | SNB-75 72.8 µM | RXF 393 92 µM | IGROV-1 60.5 µM | RPMI-8226 25.5 µM | HCC 2998 75.2 µM | 786-0 > 100 µM | NCI-H23 33.2 µM | SK-MEL-2 76.4 µM

C[N+]1(C)CCCC1C(=O)[O-] (centres undefined)
inactive: ACHN > 100 µM | OVCAR-4 > 100 µM | NCI-H226 > 100 µM | HOP-92 > 100 µM | M14 > 100 µM | HOP-62 > 100 µM | SR > 100 µM | EKVX > 100 µM | SW-620 > 100 µM | SNB-75 > 100 µM | RXF 393 > 100 µM | IGROV-1 > 100 µM | RPMI-8226 > 100 µM | HCC 2998 > 100 µM | 786-0 > 100 µM | NCI-H23 > 100 µM | SK-MEL-2 > 100 µM

N#COc1ccc(Oc2ccccc2)cc1
inactive: ACHN 29.2 µM | OVCAR-4 > 100 µM | NCI-H226 > 100 µM | HOP-92 43.8 µM | M14 58.7 µM | HOP-62 55.7 µM | SR 24.3 µM | EKVX > 100 µM | OVCAR-5 > 100 µM | SNB-75 39.8 µM | RXF 393 > 100 µM | IGROV-1 68.4 µM | RPMI-8226 30.4 µM | HCC 2998 55.5 µM | 786-0 34.6 µM | NCI-H23 39.4 µM | SK-MEL-2 74.3 µM

Nc1ncnc2sc(Nc3ccccc3)nc12
inactive: ACHN 12.3 µM | OVCAR-4 93.3 µM | NCI-H226 > 100 µM | HOP-92 77.1 µM | M14 92 µM | HOP-62 81.7 µM | SR 38 µM | SW-620 > 100 µM | OVCAR-5 > 100 µM | SNB-75 29.6 µM | IGROV-1 32.2 µM | RPMI-8226 > 100 µM | HCC 2998 > 100 µM | 786-0 26.5 µM | NCI-H23 48.3 µM | SK-MEL-2 > 100 µM
